“Also recorded” adds a separate entry of the source. Like-named read-outs stand apart in the source and are kept apart here.
Tests used:
P-gp [1] = target: T1, P-gp (Homo sapiens, UniProt P08183); details: Rho123 accumulation, K562/Dox; cited from earlier work
P-gp [2] = target: T1, P-gp; experiment: Rhodamine 123 intracellular accumulation assay in K562/Dox (flow cytometry); details: for FAR (fluorescence activity ratio): Rho123, K562/Dox
K562/Dox cells [3] = experiment: Doxorubicin resistance reversal assay in K562/Dox (MTT); details: K562/Dox; for FR (fold reversal): Dox co-administered
Experimental: (§1) Simultaneously, viability controls were run with no addition of the dissolution solvent. The cells were incubated at 37 °C at 5% CO2 for 48 h and the same protocol described above was followed. The potency of the compounds was established by means of the fold reversal (FR) values calculated from dividing the IC50 of Dox alone by the IC50 of Dox with different concentrations of each compound tested.

MA-104 cells = system: MA-104 cells; parameters: method as in Delou et al. 2009[44]; details: 22 µM; ref Delou et al. 2009[44]; cited from earlier work
K562 cells [4] = experiment: Doxorubicin intracellular accumulation assay in K562 (flow cytometry); details: K562, versus negative control
P-gp [5] = target: T1, P-gp; experiment: Doxorubicin intracellular accumulation assay in K562/Dox (flow cytometry)
K562/Dox cells [6] = experiment: MTT colorimetric assay, cytotoxicity on resistant K562/Dox; assay type: cell-based; details: MTT, 48 h, K562/Dox, read-out: IC50 K562/Dox
Experimental: This colorimetric technique is based on the ability of viable cells to capture MTT and reduce it through the mitochondrial enzyme succinic dehydrogenase to its insoluble form, formazan crystals. The target compounds dissolved in DMSO (0.5% v/v as final concentration which was non-toxic to cells) at a maximum concentration of 50 µM were exposed to 5 × 10^4 cells distributed in a 96-well plate and incubated for 48 h. […] After this time, the plate was centrifuged at 2000 rpm for 10 min, and 100 µL of DMSO was added to dissolve the formazan crystals formed. Absorbance (Abs) was read at a wavelength of 595 nm in an iMark microplate reader (Bio-Rad, USA). The percentages of cytotoxicity were determined as compared to DMSO treated control cells, which were considered 100% viable as showing the same level of growth as the untreated cells.

K562 cells [7] = experiment: Doxorubicin resistance reversal assay in K562 (MTT); assay type: cell-based; details: K562, 1.56 µM
Experimental: as §1

K562 cells [8] = experiment: MTT colorimetric assay, cytotoxicity on sensitive K562; assay type: cell-based; details: MTT, 48 h, K562
Experimental: This colorimetric technique is based on the ability of viable cells to capture MTT and reduce it through the mitochondrial enzyme succinic dehydrogenase to its insoluble form, formazan crystals. […] After this time, the plate was centrifuged at 2000 rpm for 10 min, and 100 µL of DMSO was added to dissolve the formazan crystals formed. Absorbance (Abs) was read at a wavelength of 595 nm in an iMark microplate reader (Bio-Rad, USA).

erythrocytes = experiment: Erythrocyte hemolysis assay; assay type: cell-based, human; details: maximum tested concentration of 50 µM, 1 h
Experimental: For the erythrocyte hemolysis assay, the red blood cell suspension was obtained from fresh heparinized blood collected from healthy human volunteer donors, without receiving any treatment. The blood sample was centrifuged at 2,500 rpm for 10 min at 4 °C. The supernatant was discarded, and the red blood cell pellet was subjected to two consecutive washes with sterile PBS, using the same centrifugation conditions. An aliquot of the pellet obtained was resuspended in PBS (3% v/v). The compounds were incubated at decreasing concentrations starting from 50 µM with the suspension at 37 °C for 1 h. Controls with 1% DMSO and no solvent were included.

[9] = system: peripheral blood mononuclear cells (PBMC); experiment: Cytotoxicity on peripheral blood mononuclear cells (MTT); assay type: cell-based, human; details: MTT, 48 h, up to 50 µM
Experimental: . PBMC were isolated by the Ficoll-Hypaque density gradient centrifugation technique of fresh heparinized blood from healthy human volunteers. The protocol was previously approved by the Catholic University of Córdoba Research Ethics Board. Signed informed consents were obtained from donors. All methods were performed in accordance with the relevant guidelines and regulations. Briefly, 1 × 10^5 cells/well in a 96-well plate were incubated with 10 µg/mL PHA, in the presence of the corresponding concentrations of the compounds or 0.5% v/v DMSO (negative control) for 48 h, and processed as above described for the MTT method. The percentages of inhibition on cell proliferation were determined by comparison with negative controls, and the corresponding IC50 values were calculated from the best fit of the concentration-dependent inhibition curves in GraphPad Prism 7.

K562 cells [10] = experiment: Rhodamine 123 intracellular accumulation assay in K562 (flow cytometry)
P-gp [11] = target: T1, P-gp

T1 sequence (P08183 whole entry): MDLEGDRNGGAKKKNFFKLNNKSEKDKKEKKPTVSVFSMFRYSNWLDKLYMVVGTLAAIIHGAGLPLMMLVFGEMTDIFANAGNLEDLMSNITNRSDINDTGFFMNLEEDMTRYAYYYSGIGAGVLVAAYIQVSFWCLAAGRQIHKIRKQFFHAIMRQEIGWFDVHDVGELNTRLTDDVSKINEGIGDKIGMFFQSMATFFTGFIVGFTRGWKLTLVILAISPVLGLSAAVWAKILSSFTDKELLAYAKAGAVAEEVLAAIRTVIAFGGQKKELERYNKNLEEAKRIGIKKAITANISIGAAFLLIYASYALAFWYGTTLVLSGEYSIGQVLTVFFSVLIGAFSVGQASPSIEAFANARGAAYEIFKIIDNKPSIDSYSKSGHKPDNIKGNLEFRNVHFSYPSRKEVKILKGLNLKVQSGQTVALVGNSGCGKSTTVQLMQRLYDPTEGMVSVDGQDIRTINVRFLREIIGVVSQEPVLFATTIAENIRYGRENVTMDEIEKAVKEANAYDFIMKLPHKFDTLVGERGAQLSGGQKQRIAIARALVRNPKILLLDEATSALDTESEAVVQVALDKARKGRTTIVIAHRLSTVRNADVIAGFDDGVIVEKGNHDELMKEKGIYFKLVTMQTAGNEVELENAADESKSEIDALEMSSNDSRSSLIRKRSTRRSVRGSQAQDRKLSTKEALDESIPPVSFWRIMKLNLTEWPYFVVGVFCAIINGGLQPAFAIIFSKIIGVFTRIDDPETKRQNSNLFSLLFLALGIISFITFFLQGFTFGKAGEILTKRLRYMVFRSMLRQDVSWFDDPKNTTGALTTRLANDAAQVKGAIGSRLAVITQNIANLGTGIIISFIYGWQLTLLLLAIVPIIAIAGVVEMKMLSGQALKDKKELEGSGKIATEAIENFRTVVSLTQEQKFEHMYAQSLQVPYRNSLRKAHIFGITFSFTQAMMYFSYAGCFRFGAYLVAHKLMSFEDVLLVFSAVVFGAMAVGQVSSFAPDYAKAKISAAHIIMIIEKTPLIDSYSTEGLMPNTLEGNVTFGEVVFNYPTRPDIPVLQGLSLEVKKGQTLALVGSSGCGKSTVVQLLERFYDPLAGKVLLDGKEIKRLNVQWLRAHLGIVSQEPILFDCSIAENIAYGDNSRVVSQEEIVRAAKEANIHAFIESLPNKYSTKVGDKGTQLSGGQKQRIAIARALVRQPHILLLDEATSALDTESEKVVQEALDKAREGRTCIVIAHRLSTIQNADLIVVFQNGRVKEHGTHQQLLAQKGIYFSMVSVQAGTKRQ

Row | SMILES | FAR (fluorescence activity ratio) (P-gp [2]; 0.78 µM) | FAR (fluorescence activity ratio) (P-gp [2]; 1.56 µM) | FAR (fluorescence activity ratio) (P-gp [2]; 3.12 µM) | FAR (fluorescence activity ratio) (P-gp [2]; 6.25 µM) | FAR (fluorescence activity ratio) (P-gp [2]; 25 µM) | FAR (fluorescence activity ratio) (P-gp [2]; 50 µM) | MEC, Dox resistance reversal (K562/Dox cells [3]) [µM] | MEC (minimum effective concentration) (P-gp [2]; Rho123 accumulation, K562/Dox) [µM] | MEC, Dox accumulation (P-gp [5]) [µM] | IC50 (K562/Dox cells [6]; Homo sapiens, K562, 48 h) [µM] | IC50 (K562 cells [8]; Homo sapiens, K562, 48 h) [µM] | also measured
1 | C=C(C)[C@@H]1CC[C@]2(CO)CC[C@]3(C)[C@H](CC[C@@H]4[C@@]5(C)CC[C@H](O)C(C)(C)[C@@H]5CC[C@]43C)[C@@H]12 [Compound 1, betulin] | 1.01 ± 0.07 | 1.12 ± 0.03 | 1.23 ± 0.04 | 1.32 ± 0.06 | 2.34 ± 0.19 | 2.77 ± 0.36 | 0.39 | – | – | – | – | MEC (minimum effective concentration) (P-gp [1]): 1.56 µM; FAR (fluorescence activity ratio) (P-gp [2]; 12.50 µM): 1.80 ± 0.08
2 | C=C(C)[C@@H]1CC[C@]2(C(=O)O)CC[C@]3(C)[C@H](CC[C@@H]4[C@@]5(C)CC[C@H](O)C(C)(C)[C@@H]5CC[C@]43C)[C@@H]12 [Compound 2, betulinic acid, reference compound] | – | – | – | – | – | 1.05 ± 0.04 | – | – | – | – | – | Rho123 accumulation in MA-104 cells (MA-104 cells): not to alter Rho123 accumulation
3 | C=C(C)[C@@H]1CC[C@]2(COC(=O)NCCc3cc(OC)c(OC)c(OC)c3)CC[C@]3(C)[C@H](CC[C@@H]4[C@@]5(C)CC[C@H](O)C(C)(C)[C@@H]5CC[C@]43C)[C@@H]12 [Compound 6g] | 1.33 ± 0.14 | 1.61 ± 0.23 | 2.05 ± 0.36 | 2.62 ± 0.49 | 3.47 ± 0.61 | 4.02 ± 0.70 | 0.024 | 0.19 | 0.098 | > 50 | > 50 | Dox accumulation in K562 (K562 cells [4]): did not increase Dox accumulation; FAR (fluorescence activity ratio) (P-gp [2]; 0.098 µM): 1.00 ± 0.04; FAR (fluorescence activity ratio) (P-gp [2]; 0.19 µM): 1.09 ± 0.03; dose-dependent behavior, b (P-gp [2]; Rho123 accumulation, K562/Dox): 64.49; FAR, Dox accumulation (P-gp [5]; 50 µM): 1.26 ± 0.02; potency for restoring the cytotoxicity of Dox relative to compound 1 (times) (K562/Dox cells [3]): 16; FR (fold reversal) (K562/Dox cells [3]; 0.024 µM): 1.17 ± 0.05; FR (fold reversal) (K562/Dox cells [3]; 0.78 µM): 3.98 ± 0.71; FR (fold reversal) (K562/Dox cells [3]; 1.56 µM): 5.37 ± 1.36; reversal effect on parental K562 (K562 cells [7]): slight increase in Dox toxicity; erythrocyte hemolysis (erythrocytes): devoid of toxic effects; also recorded: Neither compound induced erythrocyte hemolysis; cytotoxicity on PBMC [9]: devoid of toxic effects; also recorded: did not reveal cytotoxicity; Rho123 accumulation in K562 (K562 cells [10]; K562, maximum concentration assayed): did not increase Rho123 accumulation
4 | COc1cc2c(cc1OC)CN(CCc1ccc(NC(=O)c3cc(OC)c(OC)cc3NC(=O)c3cnc4ccccc4c3)cc1)CC2 [Tariquidar, tariquidar, reference compound] | 1.12 ± 0.03 | – | – | – | – | – | – | 0.78 | 0.39 | 2.2 | 2.4 | FAR (fluorescence activity ratio) (P-gp [11]; 1.56 µM): 1.22 ± 0.05; FAR (fluorescence activity ratio) (P-gp [11]; 3.12 µM): 1.14 ± 0.03; IC50 (K562/Dox cells [6]): 2.25 ± 0.28 µM; IC50 (K562 cells [8]): 2.38 ± 0.32 µM; FAR (fluorescence activity ratio) (K562 cells [10]; Rho123, K562, 3.12 µM): 0.82 ± 0.11
